Where two headings read alike, the source gives them in different places.
Experiments:
SFRP-1 [1] = target: T1, SFRP-1 (Homo sapiens, UniProt Q8N474); experiment: Cell-based assay for in vitro measurement of SFRP-1/SARP2 antagonist activity (U2OS cells co-transfected with 16x TCF-tk-Luciferase reporter, Wnt and hSFRP-1); conditions: for fold induction at 10 µM / fold induction at 15 µM: U2OS;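 as to all read-outs here: U2OS cells co-transfected with a TCF-tk luciferase reporter, a Wnt vector, hSFRP-1 or empty vector and CMV-βgal, luciferase luminescence read in cell lysates alongside βgal activity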
T1 sequence (Q8N474 32-314): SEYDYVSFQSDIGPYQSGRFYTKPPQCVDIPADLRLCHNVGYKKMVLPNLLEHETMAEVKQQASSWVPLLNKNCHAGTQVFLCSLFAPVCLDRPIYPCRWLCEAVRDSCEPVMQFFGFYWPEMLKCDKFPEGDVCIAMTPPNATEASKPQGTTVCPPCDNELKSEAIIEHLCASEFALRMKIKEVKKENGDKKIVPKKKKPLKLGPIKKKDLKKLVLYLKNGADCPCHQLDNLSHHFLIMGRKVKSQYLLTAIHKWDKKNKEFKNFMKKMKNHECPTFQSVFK

SFRP-1 [2] = target: T1, SFRP-1; experiment: Fluorescence polarization binding assay (competitive displacement of a probe compound from SFRP-1); conditions: fluorescence anisotropy, 45 nM SFRP-1, 20 nM probe;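 also: test compound competes with a fluorescent probe held by SFRP-1, seen as a drop in probe anisotropy after incubation in darkness, with anisotropy as function of rising compound dose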
[3] = read-out: Fold Induction with SFRP-1, Conc 15 μM, with SFRP-1, fold induction over SFRP-1 control, single dose
[4] = read-out: Fold Induction without SFRP-1, Conc 15 μM, without SFRP-1, single dose
[5] = read-out: Fold Induction with SFRP-1, Conc 15 μM, single dose, luciferase reporter, fold induction over SFRP-1 control, cells with SFRP-1
[6] = read-out: Fold Induction without SFRP-1, Conc 15 μM, single dose, luciferase reporter, cells without SFRP-1 (specificity control)
[7] = read-out: Fold Induction with SFRP-1, U2OS cells, single dose 10 μM, luciferase reporter, fold induction over SFRP-1 control

Row | EC50 (SFRP-1 [1]) | IC50 (SFRP-1 [2]) | fold induction at 15 µM (SFRP-1 [1]; [5]) | fold induction at 15 µM (SFRP-1 [1]; [6]) | SMILES | other results
1 | – | 500 nM | – | – | Cc1ccc(S(=O)(=O)c2ccc(N3CCOCC3)cc2)cc1S(=O)(=O)NCCCn1ccnc1 [Example 313, N-[3-(1H-imidazol-1-yl)propyl]-2-methyl-5-[(4-morpholin-4-ylphenyl)sulfonyl]benzenesulfonamide] | fold induction at 15 µM (SFRP-1 [1]; [3]): 1.9; fold induction at 15 µM (SFRP-1 [1]; [4]): 1
2 | – | 700 nM | 2.9 | 1.1 | CC(C)c1ccc(S(=O)(=O)c2ccc(NCCC#N)cc2)cc1S(=O)(=O)NCCC1CCOCC1 [Example 537, 5-({4-[(2-cyanoethyl)amino]phenyl}sulfonyl)-2-isopropyl-N-[2-(tetrahydro-2H-pyran-4-yl)ethyl]benzenesulfonamide] | –
3 | – | 1600 nM | 3 | 1.1 | CC(C)(C)NC(=O)N1CCC(NS(=O)(=O)c2cc(S(=O)(=O)c3ccccc3)ccc2Cl)CC1 [Example 649, N-(tert-butyl)-4-({[2-chloro-5-(phenylsulfonyl)phenyl]sulfonyl}amino)piperidine-1-carboxamide] | –
4 | – | 700 nM | – | – | O=C(NCCNS(=O)(=O)c1cc(S(=O)(=O)c2ccccc2)ccc1C(F)(F)F)c1ccncc1 [Example 783, N-[2-({[5-(Phenylsulfonyl)-2-(trifluoromethyl)phenyl]sulfonyl}amino)ethyl]isonicotinamide] | fold induction at 10 µM (SFRP-1 [1]; [7]): 3.2
5 | 492 nM | 270 nM | – | – | CC(C)NC(=O)CN1CCC(NS(=O)(=O)c2cc(S(=O)(=O)c3ccccc3)ccc2C(F)(F)F)CC1 [Example 1086, N-isopropyl-2-[4-({[5-(phenylsulfonyl)-2-(trifluoromethyl)phenyl]sulfonyl}amino)piperidin-1-yl]acetamide] | –
6 | – | 400 nM | – | – | CCc1ccc(S(=O)(=O)c2ccc(F)cc2)cc1S(=O)(=O)NCCn1ccnc1 [Example 297, 2-ethyl-5-[(4-fluorophenyl)sulfonyl]-N-[2-(1H-imidazol-1-yl)ethyl]benzenesulfonamide] | fold induction at 15 µM (SFRP-1 [1]; [3]): 4.3; fold induction at 15 µM (SFRP-1 [1]; [4]): 1.4
7 | – | 500 nM | 3.7 | 1.1 | CC(C)c1ccc(S(=O)(=O)c2ccc(F)cc2)cc1S(=O)(=O)NCCc1ccncc1 [Example 533, 5-[(4-fluorophenyl)sulfonyl]-2-isopropyl-N-(2-pyridin-4-ylethyl)benzenesulfonamide] | –
8 | – | 500 nM | 2.7 | 0.9 | CC(C)c1ccc(S(=O)(=O)c2ccc(N(C)C)cc2)cc1S(=O)(=O)NCCc1ccccn1 [Example 507, 5-{[4-(dimethylamino)phenyl]sulfonyl}-2-isopropyl-N-(2-pyridin-2-ylethyl)benzenesulfonamide] | –
9 | 2740 nM | 6000 nM | – | – | CC1(C)CC(NS(=O)(=O)c2cc(S(=O)(=O)c3ccccc3)ccc2C(F)(F)F)CC(C)(C)N1 [Example 948, 5-(phenylsulfonyl)-N-(2,2,6,6-tetramethylpiperidin-4-yl)-2-(trifluoromethyl)benzenesulfonamide] | fold induction at 10 µM (SFRP-1 [1]; [7]): 2.4
10 | – | 1000 nM | 2.4 | 1.1 | COc1ccccc1OC(=O)N1CCC(NS(=O)(=O)c2cc(S(=O)(=O)c3ccccc3)ccc2C)CC1 [Example 489, 2-methoxyphenyl 4-({[2-methyl-5-(phenylsulfonyl)phenyl]sulfonyl}amino)piperidine-1-carboxylate] | –
11 | 289 nM | 16 nM | – | – | O=C(O)c1ccc2c(c1)CC(NS(=O)(=O)c1cc(S(=O)(=O)c3ccccc3)ccc1C(F)(F)F)C2 (centres unmarked) [Example 1082, 2-({[5-(phenylsulfonyl)-2-(trifluoromethyl)phenyl]sulfonyl}amino)indane-5-carboxylic acid] | –
12 | 8400 nM | 3000 nM | – | – | CC(C)c1ccc(S(=O)(=O)c2ccc(F)cc2)cc1S(=O)(=O)NC1CCN(C(=S)Nc2cccc3ccccc23)CC1 [Example 690, 4-[({5-[(4-fluorophenyl)sulfonyl]-2-isopropylphenyl}sulfonyl)amino]-N-1-naphthylpiperidine-1-carbothioamide] | fold induction at 10 µM (SFRP-1 [1]; [7]): 2.3
13 | 670 nM | 190 nM | – | – | CNc1ccc(S(=O)(=O)c2ccc(C(F)(F)F)c(S(=O)(=O)NC3CCNCC3)c2)cc1 [Example 842, 5-{[4-(methylamino)phenyl]sulfonyl}-N-piperidin-4-yl-2-(trifluoromethyl)benzenesulfonamide] | fold induction at 10 µM (SFRP-1 [1]; [7]): 4.2
14 | – | 5000 nM | 2.1 | 1.1 | Cc1ccc(S(=O)(=O)c2ccccc2)cc1S(=O)(=O)NC1CCN(C(=O)CN(C)C)CC1 [Example 486, N-[1-(N,N-dimethylglycyl)piperidin-4-yl]-2-methyl-5-(phenylsulfonyl)benzenesulfonamide] | –
15 | – | 3000 nM | – | – | Cc1ccc(S(=O)(=O)c2ccccc2)cc1S(=O)(=O)NCCc1ccccn1 [Example 205, 2-methyl-5-(phenylsulfonyl)-N-(2-pyridin-2-ylethyl)benzenesulfonamide] | fold induction at 15 µM (SFRP-1 [1]; [3]): 2.3; fold induction at 15 µM (SFRP-1 [1]; [4]): 0.8
16 | – | 2200 nM | – | – | CN(CCNS(=O)(=O)c1cc(S(=O)(=O)c2ccccc2)ccc1C(F)(F)F)C(=O)c1ccc(C(F)(F)F)c(F)c1 [Example 847, 3-Fluoro-N-methyl-N-[2-({[5-(phenylsulfonyl)-2-(trifluoromethyl)phenyl]sulfonyl}amino)ethyl]-4-(trifluoromethyl)benzamide] | fold induction at 10 µM (SFRP-1 [1]; [7]): 2.4
17 | – | 15000 nM | – | – | Cc1cc(C)c(S(=O)(=O)c2ccccc2)cc1S(=O)(=O)NCC(O)c1ccccn1 (centres unmarked) [Example 729, N-(2-hydroxy-2-pyridin-2-ylethyl)-2,4-dimethyl-5-(phenylsulfonyl)benzenesulfonamide] | fold induction at 10 µM (SFRP-1 [1]; [7]): 1.7
18 | 1840 nM | 200 nM | – | – | COc1ccc(C(=O)N(C)CCNS(=O)(=O)c2cc(S(=O)(=O)c3ccccc3)ccc2C(F)(F)F)cc1 [Example 822, 4-Methoxy-N-methyl-N-[2-({[5-(phenylsulfonyl)-2-(trifluoromethyl)phenyl]sulfonyl}amino)ethyl]benzamide] | fold induction at 10 µM (SFRP-1 [1]; [7]): 3.4
19 | – | 9000 nM | – | – | Cc1ccc(S(=O)(=O)c2ccccc2)cc1S(=O)(=O)NC1CCC1 [Example 398, N-cyclobutyl-2-methyl-5-(phenylsulfonyl)benzenesulfonamide] | fold induction at 15 µM (SFRP-1 [1]; [3]): 2.6; fold induction at 15 µM (SFRP-1 [1]; [4]): 1.2
20 | – | 1200 nM | 1.9 | 1 | COc1ccc(Cl)cc1S(=O)(=O)c1ccc(C(C)C)c(S(=O)(=O)NCCc2ccccn2)c1 [Example 509, 5-[(5-chloro-2-methoxyphenyl)sulfonyl]-2-isopropyl-N-(2-pyridin-2-ylethyl)benzenesulfonamide] | –
21 | – | 700 nM | 2.6 | 1 | Cc1c(Cl)cccc1S(=O)(=O)c1ccc(C(C)C)c(S(=O)(=O)NCCc2ccccn2)c1 [Example 514, 5-[(3-chloro-2-methylphenyl)sulfonyl]-2-isopropyl-N-(2-pyridin-2-ylethyl)benzenesulfonamide] | –
22 | 2640 nM | 80 nM | – | – | COc1ccc2c(c1)CC(NS(=O)(=O)c1cc(S(=O)(=O)c3ccccc3)ccc1C(F)(F)F)C2 (centres unmarked) [Example 991, N-(5-methoxy-2,3-dihydro-1H-inden-2-yl)-5-(phenylsulfonyl)-2-(trifluoromethyl)benzenesulfonamide] | –
23 | 1320 nM | 300 nM | – | – | CC(C)(C)OC(=O)N1CCC(NS(=O)(=O)c2cc(S(=O)(=O)c3ccc(F)cc3)ccc2C(F)(F)F)CC1 [Example 818, tert-butyl 4-({[5-[(4-fluorophenyl)sulfonyl]-2-(trifluoromethyl)phenyl]sulfonyl}amino)piperidine-1-carboxylate] | fold induction at 10 µM (SFRP-1 [1]; [7]): 2.6
24 | – | 4000 nM | 2.3 | 1 | CC(=O)c1cccc(S(=O)(=O)c2ccc(C(C)C)c(S(=O)(=O)NCCc3ccccn3)c2)c1C [Example 594, 5-[(3-acetyl-2-methylphenyl)sulfonyl]-2-isopropyl-N-(2-pyridin-2-ylethyl)benzenesulfonamide] | –
25 | – | 3000 nM | – | – | Cc1ccc(S(=O)(=O)c2ccccc2)cc1S(=O)(=O)NC1CCN(C(=O)c2ccco2)CC1 [Example 449, N-[1-(2-furoyl)piperidin-4-yl]-2-methyl-5-(phenylsulfonyl)benzenesulfonamide] | fold induction at 15 µM (SFRP-1 [1]; [3]): 2.8; fold induction at 15 µM (SFRP-1 [1]; [4]): 1.1
26 | 167 nM | 50 nM | – | – | CC(=O)N1CC[C@H](C(=O)N2CCC(NS(=O)(=O)c3cc(S(=O)(=O)c4ccccc4)ccc3C(F)(F)F)CC2)C1 [Example 1065, N-(1-{[(3S)-1-acetylpyrrolidin-3-yl]carbonyl}piperidin-4-yl)-5-(phenylsulfonyl)-2-(trifluoromethyl)benzenesulfonamide] | –

Row | SMILES | EC50 (SFRP-1 [1]) | IC50 (SFRP-1 [2]) | fold induction at 15 µM (SFRP-1 [1]; [5]) | fold induction at 15 µM (SFRP-1 [1]; [6]) | other results
27 | CN(CCNS(=O)(=O)c1cc(S(=O)(=O)c2ccccc2)ccc1C(F)(F)F)C(=O)Oc1cccc(C(F)(F)F)c1 [Example 871, 3-(trifluoromethyl)phenyl methyl[2-({[5-(phenylsulfonyl)-2-(trifluoromethyl)phenyl]sulfonyl}amino)ethyl]carbamate] | 3810 nM | 600 nM | – | – | fold induction at 10 µM (SFRP-1 [1]; read-out: Fold Induction with SFRP-1): 2

— US20060276464A1, “Diarylsulfone sulfonamides and use thereof” (Wyeth, priority 2005, published 2006)
